# Patent publication US20250263370A1 (Tay Therapeutics Limited, priority 2022, published 2025)
# “And” between values parts separate entries of the source, which are not always exact repeats. Equal entries are not always repeated.
# What was measured:
# [1] = Plasma stability assay, rat plasma; format: in vitro ADME; conditions: Method 1 (5 μM)
# Summary of the method: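 Compound at 5 μM final (0.5% DMSO) in one protocol or 10 μM (2% DMSO) in the other, incubated in plasma at 37° C.; samples taken 0–120 min and quenched with cold acetonitrile plus internal standard. LC-MS/MS gives percent remaining relative to the 0-min sample.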
# [2] = Plasma stability assay, mouse plasma; format: in vitro ADME; conditions: Method 1 (5 μM)
# Method: (§1) From stock solution of compound in 10 mM DMSO, a working solution of 1 mM is prepared by diluting the compound in DMSO. To 398 μL of plasma pre-warmed at 37° C. for 15 minutes), 2 μL of working solution of compound is added, resulting in a final concentration of 5 μM (0.5% DMSO) for the compound. The sample is then incubated at 37° C. Aliquot is withdrawn at specified time-points (0, 15, 30, 60 and 120 mins). The reaction is stopped by addition of 450 μL cold acetonitrile containing internal standard (IS). […] Aliquots of the supernatant is analysed using LC-MS/MS. The percent remaining of the compound at each time point is calculated with respect to the control sample (0 min time-point).
# (§2) A working solution of compound (500 μM) is prepared in DMSO (100%). To 735 μL of plasma, 15 μL of working solution of compound is added—resulting in a final concentration of 10 μM (2% DMSO) for the compound. The sample is then incubated at 37° C. Aliquot is withdrawn at time-points—0, 15, 30, 60, 90 and 120 mins. The reaction is stopped by using chilled acetonitrile containing internal standard (IS). The samples are centrifuged and the supernatants analyzed using LC-MS/MS. The percent remaining of the compound at each time point is calculated with respect to the control sample (0 min time-point).
# [3] = Plasma stability assay, human plasma; format: in vitro ADME; conditions: Method 1 (5 μM)
# Method: as §1, §2
# [4] = Thermodynamic solubility in FaSSIF pH 6.5 buffer; format: physicochemical; conditions: FaSSIF buffer, 25 °C, pH 6.5, fassif, thermodynamic from solid, Method 1 (UV-vis, 25° C., 24 hrs)
# Method: FaSSIF v2 buffer is freshly prepared prior to use according to the suppliers' instructions and the pH adjusted to 6.5 using 1 M NaOH or 1 M HCl as required. From 1 mM working solution of test compound in DMSO, the λmax of the test compound is determined by scanning from 200 nm to 700 nm, in 1 nm steps with an EPOCH UV/Visible spectrophotometer (Biotek Instruments Inc.). A 12-point standard curve of compound concentration versus absorption at λmax is generated via two-fold serial dilutions of the 1 mM working solution with DMSO. Approximately 1 mg of test compound is accurately weighed into an Eppendorf tube and the appropriate volume of FaSSIF buffer is added to make a nominal concentration of 1 mg/mL. The tube is incubated on a rotator at 20 rpm, 25° C. for 24 hrs. Samples are then filtered using 0.45 μm filters (Sartorious, CAT #1776C) and the filtrate subjected to UV-vis spectroscopy analysis. The absorption at λmax is compared to the standard curve to determine the concentration of compound in solution after 24 hours.
# FaSSIF buffer was prepared according to the suppliers' instructions and the pH adjusted to 6.5 using 1 M NaOH or 1 M HCl as required. […] A stir stick was added to each vial and vials sealed with a moulded PTDE/SIL 96-well plate cover. The plate was shaken at 25° C. at 1,100 rpm using an Eppendorf Thermomixer Comfort plate shaker. The plates were filtered using a vacuum manifold and diluted with a mixture of H2O and acetonitrile containing internal standard. The concentration of the test compound in the filtrate was determined by LCMS analysis with reference to the internal standards to determine the solubility in the buffer.
# [5] = Sprague-Dawley rat pharmacokinetics, IV and PO cassette dosing; format: in vivo
# Summary of the method: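 Male Sprague-Dawley rats (2 per arm) given up to 5 compounds in cassette, 1 mg/kg IV and 5 mg/kg PO, formulated in 5% DMSO/40% PEG-400/55% water. Plasma from serial blood samples was acetonitrile-precipitated and analysed by LC/MS/MS against matrix-matched standard curves.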
# [6] = test system: Col1a1, TGF-b1, MCP-1, IL-1b, IL-6, IL-17, TNF-a, and Timp1; assay: Tissue biomarker mRNA by RT-PCR in ligated kidney of UUO rats; format: in vivo, rat
# Excerpt: Serum for blood biochemistry analysis was collected into centrifuge tubes without coagulant four hours after final dosing. Blood plasma samples from group 3 was collected into tubes with K2EDTA four hours after final dosing. At the conclusion of the study (end of the 14-day period), animals were euthanized. Kidney tissue was collected four hours after final dosing. Ligated side kidney was divided into three copies ⅓ fix into 10% formalin for H&E analysis, ⅓ into RNA for PCR analysis of tissue biomarkers Col1a1, TGF-b1, MCP-1, IL-1b, IL-6, IL-17, TNF-a, and Timp1, and ⅓ for hydroxyproline assay analyzed by ELISA. RNA was extracted from tissue using the RNeasy mini kit (Qiagen). RNA concentration was measured using a NanoDrop One Spectrophotometer (ThermoFisher) and converted to cDNA using a High-Capacity RNA-to-cDNA kit (Invitrogen). RT-PCR was performed to measure levels of mRNA of different targets using TaqMan® Gene Expression Master Mix and TaqMan® probe/primer sets on a QuantStudio 6, Real-Time PCR System (ThermoFisher). Fold change in target gene expression was determined using the ΔΔCt method.
# BRD4 BD2 = BRD4 BD2 (Homo sapiens (Human), UniProt O60885); assay: NanoBRET bromodomain assay, NanoLuc-BRD4-BD2 fusion in HEK293 cells;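 further: tracer displacement BRET read in transfected cells after 2 h compound exposure at 37 °C, signal in milliBRET units corrected against no-tracer background wells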
# Method: HEK293 cells were transfected using NanoLuc-BRD4-BD1 or NanoLuc-BRD4-BD2 fusion vectors and incubated at 37° C. in an atmosphere of 5% CO2 for 20-24 hours. The transfected cells were then dispensed into 96-well plates using 90 μl cell suspension per well containing 2×10^5 cells/mL in Opti-MEM and 1× final concentration of tracer. 90 μL per well of cell suspension without tracer was also dispensed into at least 3 wells as “No tracer control samples” for background correction. Serially diluted test compounds were prepared at 1000× concentration in DMSO and further diluted to 10× concentration in Opti-MEM. […] Plates were then incubated at 37° C. +5% 002 incubator for 2 hours. […] Donor emission (450 nm) and acceptor emission (610 nm) were measured using PHERAstar (BMG LabTech). For data analysis, the raw BRET ratio was generated and converted to milliBRET units with background correction using the formula: [(Acceptorsample/Donorsample−(Acceptorno tracer control/Donorno tracer control)]×1000. The mBU data was plotted as a function of compound concentration and IC50s for BRET assay were determined by nonlinear regression analysis of concentration response curves using the Collaborative Drug Discovery Vault software. The fold-selectivity was calculated by dividing the IC50 for BRD4 BD1 by the IC50 for BRD4 BD2.
structure (smiles),measurement,setting,value
"CNC(=O)c1[nH]c(C(=O)NC2CCC2)cc1O[C@@H](C)c1ccccc1 (stereo in doubt) [Example 101, N^5-cyclobutyl-N^2-methyl-3-(1-phenylethoxy)-1H-pyrrole-2,5-dicarboxamide]","Plasma Stability (% remaining at 120 minutes), Rat",[1],61%
same,"Plasma Stability (% remaining at 120 minutes), Mouse",[2],>99%
same,"Plasma Stability (% remaining at 120 minutes), Human",[3],93%
same,solubility thermodynamic at 24 h,[4],193 µM
same,PO F,"[5]; PO 5 mg/kg, Method 1",66%
same,half-life,"[5]; male, Sprague-Dawley, rat, plasma, iv, 1 mg/kg, IV 1 mg/kg, Method 1, read-out: IV T1/2 (converted)",54 min
same,Col1a1 tissue RNA level relative to UUO + vehicle,"[6]; 30 mg/kg BID, kidney",reduced levels
same,IL-1b tissue RNA level relative to UUO + vehicle,"[6]; 30 mg/kg BID, kidney",reduced levels
same,IL-6 tissue RNA level relative to UUO + vehicle,"[6]; 30 mg/kg BID, kidney",reduced levels
same,MCP-1 tissue RNA level relative to UUO + vehicle,"[6]; 30 mg/kg BID, kidney",reduced levels
same,TGF-b1 tissue RNA level relative to UUO + vehicle,"[6]; 30 mg/kg BID, kidney",reduced levels
same,Timp1 tissue RNA level relative to UUO + vehicle,"[6]; 30 mg/kg BID, kidney",reduced levels
same,expression of IL-17 relative to UUO + vehicle,"[6]; 30 mg/kg BID, kidney",limited effect
same,expression of TNF-α relative to UUO + vehicle,"[6]; 30 mg/kg BID, kidney",limited effect
same,"Col1a1 RNA level, Normalized Fold Change","[6]; 30 mg/kg, individual animals",0.67 and 0.33 and 0.21 and 0.55 and 0.28 and 0.41 and 0.86 and 0.69
same,"IL-1b RNA level, Normalized Fold Change","[6]; 30 mg/kg, individual animals",0.43 and 0.18 and 0.29 and 0.69 and 0.55 and 0.27 and 0.56 and 0.67
same,"IL-6 RNA level, Normalized Fold Change","[6]; 30 mg/kg, individual animals",0.06 and 0.05 and 0.03 and 0.33 and 0.12 (2×) and 0.26 and 0.07
same,"IL-17 RNA level, Normalized Fold Change","[6]; 30 mg/kg, individual animals",0.79 and 0.22 and 0.24 and 2.09 and 1.81 and 0.54 and 0.70 and 0.94
same,"MCP-1 RNA level, Normalized Fold Change","[6]; 30 mg/kg, individual animals",0.34 and 0.26 and 0.32 and 0.53 and 0.42 and 0.27 and 0.68 and 0.61
same,"TGF-b1 RNA level, Normalized Fold Change","[6]; 30 mg/kg, individual animals",0.63 and 0.44 and 0.35 and 0.81 and 0.52 and 0.50 and 0.90 and 0.85
same,"TNF-a RNA level, Normalized Fold Change","[6]; 30 mg/kg, individual animals",0.90 and 0.48 and 0.32 and 1.53 and 1.00 and 0.69 and 0.94 and 1.55
same,"Timp1 RNA level, Normalized Fold Change","[6]; 30 mg/kg, individual animals",0.65 and 0.41 and 0.44 and 0.71 and 0.54 and 0.56 and 0.94 and 0.97
same,"Col1a1 RNA level, Normalized Fold Change (Mean + SEM)","[6]; group mean, N 8",0.50
same,"IL-1b RNA level, Normalized Fold Change (Mean + SEM)","[6]; group mean, N 8",0.46
same,"IL-6 RNA level, Normalized Fold Change (Mean + SEM)","[6]; group mean, N 8",0.13
same,"IL-17 RNA level, Normalized Fold Change (Mean + SEM)","[6]; group mean, N 8",0.92
same,"MCP-1 RNA level, Normalized Fold Change (Mean + SEM)","[6]; group mean, N 8",0.43
same,"TGF-b1 RNA level, Normalized Fold Change (Mean + SEM)","[6]; group mean, N 8",0.63
same,"TNF-a RNA level, Normalized Fold Change (Mean + SEM)","[6]; group mean, N 8",0.93
same,"Timp1 RNA level, Normalized Fold Change (Mean + SEM)","[6]; group mean, N 8",0.65
same,selectivity for BDII relative to GSK620,BRD4 BD2,more selective than GSK620 for BDII by greater than about two orders of magnitude
same,IC50,"BRD4 BD2; BRD4 BD2 (IC50), NanoBRET, HEK293 cells, top concentration 10 μM",< 50 nM
same,Fold selectivity,"BRD4 BD2; IC50 for BRD4 BD1 divided by IC50 for BRD4 BD2, qualitative if an IC50 is at the upper limit",XXX (Fold >200)
